Experimental data: ChEMBL document CHEMBL1130482, “Synthesis and activity of C2-substituted analogs of influenza neuraminidase inhibitor GS 4071” (Bioorg Med Chem Lett, 1997)

Test: Concentration required for the inhibition of influenza neuraminidase activity by 50%
Parameters: species or system unidentified influenza virus

Row | Compound | IC50
1 | CCC(CC)O[C@@H]1C(SC)=C(C(=O)O)C[C@H](N)[C@H]1NC(C)=O | 3.4 µM
2 | CCC(CC)O[C@@H]1C(C)=C(C(=O)O)C[C@H](N)[C@H]1NC(C)=O | 2.3 µM
3 | CCC(CC)O[C@@H]1C(Cl)=C(C(=O)O)C[C@H](N)[C@H]1NC(C)=O | 3.1 µM
4 | CCC(CC)O[C@@H]1C=C(C(=O)O)C[C@H](N)[C@H]1NC(C)=O [OSELTAMIVIR CARBOXYLATE] | 0.0014 µM
